This experiment concerns Botrytis cinerea. Put plainly: Efficacy against Botrytis cinerea on apple (fruit cv. Golden Delicious). It counts as in vivo. The settings on record: 120 h, read-out: % activity observed. The source says:
A synergistic effect exists whenever the action of an active ingredient combination is greater than the sum of the actions of the individual components.
The action to be expected E for a given active ingredient combination obeys the so-called COLBY formula and can be calculated as follows (COLBY, S. R. “Calculating synergistic and antagonistic responses of herbicide combination”. Weeds, Vol. 15, pages 20-22; 1967):
ppm=milligrams of active ingredient (=a.i.) per litre of spray mixture
X=% action by active ingredient I using p ppm of active ingredient
Y=% action by active ingredient II using q ppm of active ingredient.
According to Colby, the expected (additive) action of active ingredients I+II using p+q ppm of active ingredient is [formula]
If the action actually observed (O) is greater than the expected action (E), then the action of the combination is superadditive, i.e. there is a synergistic effect.
In an apple fruit cv. Golden Delicious 3 holes were drilled and each filled with 50 μl droplets of the formulated test composition. Two hours after application 50 μl of a spore suspension of B. cinerea (4×10^5 conidia/ml) were pipetted on the application sites. After an incubation period of 5 days at 20° C. in a growth chamber the % infected fruit area was determined. The activity was calculated relative to the disease rate on untreated apple fruits. The fungicide interactions in the mixture were calculated according to Colby.

Read-outs that look alike come from different tables or passages of the source.

`N#Cc1c[nH]cc1-c1cccc2c1OC(F)(F)O2` [Fludioxonil, 4-(2,2-difluoro-1,3-benzodioxol-7-yl)pyrrole-3-carbonitrile]: the inhibition at 0.1 µg/mL was 2%, the inhibition at 0.5 µg/mL came out at 24%, the inhibition at 2.5 µg/mL was found to be 54% and the inhibition at 5 µg/mL is 67%.

With `c1ccc2[nH]c(-c3cscn3)nc2c1` [Thiabendazole, 2-(thiazol-4-yl)benzimidazol], for the setting “Thiabendazole 0.5 mg a.i./l, apple, 5 days at 20° C.”, the inhibition at 0.5 µg/mL came out at 5%. The inhibition at 1 µg/mL (Thiabendazole 1 mg a.i./l, apple, 5 days at 20° C.) stood at 10%. The inhibition at 2.5 µg/mL (Thiabendazole 2.5 mg a.i./l, apple, 5 days at 20° C.) was 10%. Under “Thiabendazole 5 mg a.i./l, apple, 5 days at 20° C.”, the inhibition at 5 µg/mL came to 12%. Besides, the inhibition at 25 µg/mL (Thiabendazole 25 mg a.i./l, apple, 5 days at 20° C.) came to 5%.

The record behind these values is US6797672B2, “Fungicidal compositions based on fludioxonil” (Syngenta Crop Protection, Inc., priority 2003, dated 2004).
